Columns and labels:
Type in all cases: functional
Rattus norvegicus [1] = species: Rattus norvegicus; assay: The compound was tested for analgesic activity using (RTF) tail-flick test in rat
Rattus norvegicus [2] = assay: The compound was tested for hyperexcitability in rat at a dose of 80 mg/Kg
Rattus norvegicus [3] = assay: The compound was tested for serotonin antagonism in rat at a dose of 2 mg/Kg
Rattus norvegicus [4] = assay: The compound was tested for hyperexcitability in rat at a dose of 20 mg/Kg
Rattus norvegicus [5] = assay: The compound was tested for decreasing motor activity in rat. at a dose of 5 mg/Kg
Rattus norvegicus [6] = assay: The compound was tested for hyperexcitability in rat at a dose of 5 mg/Kg
Rattus norvegicus [7] = assay: The compound was tested for serotonin antagonism in rat at a dose of 1 mg/Kg
Rattus norvegicus [8] = assay: The compound was tested for decreasing motor activity in rat at a dose of 2 mg/Kg
Rattus norvegicus [9] = assay: The compound was tested for methamphetamine antagonism in rat at a dose of 2 mg/Kg
Mus musculus [10] = species: Mus musculus; assay: The compound was tested for activity to decrease fighting in mouse
Rattus norvegicus [11] = assay: The compound was tested for methamphetamine antagonism in rat at a dose of 1 mg/Kg
Mus musculus [12] = species: Mus musculus; assay: The compound was tested for analgesic activity using writhing (W) test in mouse

CC(CCCc1ccc(F)cc1)c1cc(O)c2c(c1)OC(C)(C)C1=C2CN(CC(=O)NC(N)=O)CC1 (configuration not stated)
ED50 (Rattus norvegicus [1]): 1.6 mg/kg | Possible response (Rattus norvegicus [2]): 100% | Decrease in activity (Rattus norvegicus [3]): 72% | Possible response (Rattus norvegicus [4]): 90% | Decrease in activity (Rattus norvegicus [5]): 55% | Possible response (Rattus norvegicus [6]): 46% | Decrease in activity (Rattus norvegicus [7]): 50% | Decrease in activity (Rattus norvegicus [8]): 88% | Decrease in activity (Rattus norvegicus [9]): 75% | ED50 (Mus musculus [10]): 2 mg/kg | Decrease in activity (Rattus norvegicus [11]): 64% | ED50 (Mus musculus [12]): 0.7 mg/kg

From ChEMBL document CHEMBL1122334, “New azacannabinoids highly active in the central nervous system” (1983)
